Consider 27 compounds from patent US9410958B2, “Alkyne-activated fluorogenic azide compounds and methods of use thereof” (The Regents of the University of California, priority 2014, dated 2016).

Entries after “also recorded” stand apart in the source; their conditions may differ. Read-outs that look alike come from different tables or passages of the source. Marks after values point to notes of the source that are not given here.

Data set [1] can be described thus: Photophysical properties and fluorescence quantum yields of Si-rhodamines in PBS pH 7.4. It counts as physicochemical. The settings on record: for Φfl: cresyl violet in methanol as standard. As for the experimental part:
The fluorescence quantum yields of the purified amino, azido, and triazolyl Si-rhodamines were measured in pH 7.4 phosphate buffered saline (PBS) using cresyl violet in methanol (Φfl=0.54) as a standard (Table 1). […] The best candidate of the four, 8-azidonaphthyl-substituted Si-rhodamine 1, afforded only a 5-fold increase in fluorescence quantum yield as compared with the 29-fold enhancement observed with the corresponding fluorescein.
Fluorescence quantum yields were measured by creating 2 mM stocks of dyes in MeOH. The dyes were then diluted to 20 μM in PBS, then further diluted in PBS to various final concentrations. The absorbance and emission spectra of five different concentrations of dye were measured while keeping maximum absorbance under 0.2. Solutions of probe were excited at 600 nm, and emission was integrated from 600 to 800 nm. Plotting integrated emission vs. absorbance at 600 nm yielded a line, whose slope corresponds to the fluorescence quantum yield. Absolute quantum yields were determined by comparison with the slope of the line measured for cresyl violet in MeOH (Φfl=0.54). The reported quantum yields are the average of three sets of measurements. Absorbance spectra were recorded on a Varian Cary 50 UV-Visible spectrophotometer. Fluorescence spectra were recorded on a Photon Technology International Quanta Master 4 L-format scanning spectrofluorometer equipped with an LPS-220B 75-W xenon lamp and power supply, A-1010B lamp housing with an integrated igniter, switchable 814 photon counting/analog photomultiplier detection unit, and MD5020 motor driver. Measurements were made in 1 cm×0.4 cm quartz cuvettes with a total sample volume of 1 mL.

For data set [2] the following is noted: data from Shieh et al. 2014; cited from earlier work.
For a further data set, the system named is CHO K1 cells. The data set is described as follows: No-wash cell surface labeling of SiaNAl residues, CHO K1. It counts as cell-based. As for the experimental part: Si-rhodamine 10 was evaluated as a reagent for imaging SiaNAl residues on live cell surfaces. CHO K1 cells were incubated with 50 μM Ac4ManNAl for 3 days, washed, and then incubated with 5 μM 10, 50 μM CuSO4, 300 μM BTTAA, and 1 mM sodium ascorbate. […] Cell-surface glycan labeling was visualized as it occurred in real time (FIG. 14). Background labeling was minimal on control cells treated with N-acetylmannosamine (Ac4ManNAc) (FIG. 13).

The next data set concerns HEK 293T cells. Nature of the data set: No-wash live cell surface labeling and mitochondrial co-staining, HEK 293T. The settings on record: HEK 293T.
Setting [3] is: decrease (↓), amine relative to the azide.
The mark [4] stands for this setting: increase (↑), triazole relative to the azide.

Method for HEK 293T cells: Cells were grown in 8-well Lab-Tek Chambered Coverglass systems in media (HAM-F12 for CHO K1 cells, DMEM for HEK 293T cells) containing 10% fetal bovine serum, penicillin/streptomycin, and either 50 μM Ac4ManNAl or Ac4ManNAc for 3 d at 37° C., as described previously. The cells were then washed with 3×300 μL PBS, then incubated with 100 μL freshly prepared click solution. Click solution comprised of 50 μM CuSO4, 300 μM BTTAA, 2.5 mM sodium ascorbate, and 5 μM azido Si-rhodamine. This was prepared by first adding 0.5 μL 50 mM CuSO4 in H2O and 3 μL 50 mM BTTAA in H2O to 481.5 μL PBS. Next, 12.5 μL freshly prepared 100 mM sodium ascorbate in PBS was added. Finally, 2.5 μL 1 mM azido Si-rhodamine in 4:1 PBS/MeOH was added. After 15 min, the reactions were quenched with the addition of 1 μL of 100 mM bathocuproine disulfonate (BCS) in H2O (final concentration 1 mM). […] For real-time imaging, images were acquired as the labeling progressed without quenching the reaction.
HEK 293T cells were grown in a LabTek 8-well chambered glass slide in DMEM containing fetal bovine serum, penicillin/streptomycin for 3 d at 37° C. The cells were then incubated with 100 nM MitoTracker Green FM and 1 μg/mL Hoechst 33342 in fresh media for 30 min at 37° C., then media removed and the cells incubated with 100 μL PBS containing 5 μM 10. The cells were then directly imaged.
The CalFluors' performance in no-wash cell imaging experiments was evaluated. Using established methods, cell-surface glycoconjugates were metabolically labeled with peracetylated N-pentynoyl mannosamine (Ac4ManNAl), which introduces terminal alkyne groups into sialic acid residues (SiaNAl). HEK 293T cells treated in this fashion were then incubated, without fixation, with a cocktail containing 50 μM CuSO4, 300 μM BTTAA, 5 mM sodium ascorbate and 10 μM CalFluor dye.
Cells were grown with 50 μM Ac4ManNAl or Ac4ManNAc for 3 days, then subjected to click labeling with CalFluor probes. (A) Labeling glycoproteins on live cell surfaces. Cells were treated with 10 μM azide probe, 50 μM CuSO4, 300 μM BTTAA ligand, and 5 mM sodium ascorbate. The reaction was quenched with 1 mM BCS and the cells imaged without further wash steps. (B) Labeling glycoproteins on fixed cells. Cells were fixed with 3% paraformaldehyde, then treated with 10 μM CalFluor probe, 1 mM CuSO4, 100 μM TBTA ligand, and 2 mM sodium ascorbate. 0.1 mg/mL BSA was added to prevent the TBTA from precipitating over the course of the reaction.

For `COc1cc(C)c(C2=C3C=CC(=[N+](C)C)C=C3[Si](C)(C)c3cc(N(C)C)ccc32)cc1N` [Compound 7-NH2], in data set [1], the λabs turned out to be 648 nm, the λem amounted to 669 nm and the Φfl was determined as 0.0015. The “Change in Φfl” value in data set [1] (setting [3]) was 45-fold ↓.

In the case of `CN(C)c1ccc2c(c1)[Si](C)(C)C1=CC(=[N+](C)C)C=CC1=C2c1cc(N=[N+]=[N-])cc2[nH]ccc12` [Compound 4-N3], in data set [1], the λabs was 660 nm, the λem came to 669 nm and the Φfl was 0.0048.

In data set [1], `COc1cc(OC)c(-n2cc(CCC(=O)NCCO)nn2)cc1C1=C2C=CC(=[N+](C)C)C=C2[Si](C)(C)c2cc(N(C)C)ccc21` [Compound 9-triazole] displayed a λabs of 655 nm, a λem of 668 nm and a Φfl of 0.20. The “Change in Φfl” value in data set [1] (setting [4]) is 48-fold ↑.

On to `COc1cc(C)c(C2=C3C=CC(=[N+](C)C)C=C3[Si](C)(C)c3cc(N(C)C)ccc32)cc1-n1cc(CCC(=O)NCCO)nn1` [Compound 7-triazole], for which, in data set [1], the λabs came to 652 nm, the λem is recorded as 666 nm and the Φfl stood at 0.25. Further, the “Change in Φfl” value in data set [1] (setting [4]) is recorded as 3.7-fold ↑.

Regarding `CN(C)c1ccc2c(c1)[Si](C)(C)C1=CC(=[N+](C)C)C=CC1=C2c1ccc(N)c2ccccc12` [Compound 1-NH2], in data set [1], the λabs was found to be 653 nm, the λem turned out to be 669 nm and the Φfl is on record as 0.0016. Moreover, the “Change in Φfl” value in data set [1] (setting [3]) is recorded as 24-fold ↓.

Take `COc1cc(N=[N+]=[N-])c(OC)c(C2=C3C=CC(=[N+](C)C)C=C3[Si](C)(C)c3cc(N(C)C)ccc32)c1` [Compound 8-N3]: in data set [1], the λabs came out at 655 nm, the λem is 669 nm and the Φfl was 0.051.

Turning to `CN(C)c1ccc2c(c1)[Si](C)(C)C1=CC(=[N+](C)C)C=CC1=C2c1cc(N)cc2c1OCCO2` [Compound 5-NH2], in data set [1], the λabs was 653 nm, the λem worked out at 667 nm and the Φfl was 0.00093. Besides, the “Change in Φfl” value in data set [1] (setting [3]) is on record as 21-fold ↓.

With `COc1cc(-n2cc(CCC(=O)NCCO)nn2)cc(C2=C3C=CC(=[N+](C)C)C=C3[Si](C)(C)c3cc(N(C)C)ccc32)c1OC` [Compound 6-triazole], in data set [1], the λabs stood at 656 nm, the λem amounted to 670 nm and the Φfl came to 0.18. In addition, the “Change in Φfl” value in data set [1] (setting [4]) was 4.6-fold ↑.

In data set [1], `COc1ccc(N)cc1C1=C2C=CC(=[N+](C)C)C=C2[Si](C)(C)c2cc(N(C)C)ccc21` [Compound 2-NH2] yielded a λabs of 650 nm, a λem of 669 nm and a Φfl of 0.0025. Also, in data set [1] (setting [3]), the “Change in Φfl” value is 32-fold ↓.

In data set [1], `CN(C)c1ccc2c(c1)[Si](C)(C)C1=CC(=[N+](C)C)C=CC1=C2c1cc(-n2cc(CCC(=O)NCCO)nn2)cc2c1OCCO2` [Compound 5-triazole] returned a λabs of 656 nm, a λem of 668 nm and a Φfl of 0.18. In data set [1] (setting [4]), the “Change in Φfl” value is given as 9.5-fold ↑.

As for `COc1cc(OC)c(C2=C3C=CC(=[N+](C)C)C=C3[Si](C)(C)c3cc(N(C)C)ccc32)cc1N` [Compound 9-NH2], in data set [1], the λabs is given as 650 nm, the λem was 664 nm and the Φfl was determined as 0.0014. Further, in data set [1] (setting [3]), the “Change in Φfl” value is listed as 3.0-fold ↓.

In data set [1], `CN(C)c1ccc2c(c1)[Si](C)(C)C1=CC(=[N+](C)C)C=CC1=C2c1cc(-n2cc(CCC(=O)NCCO)nn2)ccc1N1CCOCC1` [Compound 3-triazole] returned a λabs of 663 nm, a λem of 676 nm and a Φfl of 0.0015. Further, the “Change in Φfl” value in data set [1] (setting [4]) was 1.1-fold ↑.

In data set [1], `CN(C)c1ccc2c(c1)[Si](C)(C)C1=CC(=[N+](C)C)C=CC1=C2c1cc(N)cc2[nH]ccc12` [Compound 4-NH2] registered a λabs of 650 nm, a λem of 673 nm and a Φfl of 0.00088. Further, in data set [1] (setting [3]), the “Change in Φfl” value was 5.5-fold ↓.

In data set [1], `COc1cc(N=[N+]=[N-])cc(C2=C3C=CC(=[N+](C)C)C=C3[Si](C)(C)c3cc(N(C)C)ccc32)c1OC` [Compound 6-N3] returned a λabs of 654 nm, a λem of 669 nm and a Φfl of 0.039.

Turning to `COc1cc(C)c(C2=C3C=CC(=[N+](C)C)C=C3[Si](C)(C)c3cc(N(C)C)ccc32)cc1N=[N+]=[N-]` [Compound 7-N3], in data set [1], the λabs is 650 nm, the λem came to 666 nm and the Φfl amounted to 0.066.

As for `CN(C)c1ccc2c(c1)[Si](C)(C)C1=CC(=[N+](C)C)C=CC1=C2c1cc(N)ccc1N1CCOCC1` [Compound 3-NH2], in data set [1], the λabs is 650 nm, the λem is 672 nm and the Φfl is reported as 0.00096. Further, the “Change in Φfl” value in data set [1] (setting [3]) is recorded as 1.4-fold ↓.

As to `COc1cc(OC)c(-n2cc(CCC(=O)NCCO)nn2)cc1C1=C2C=CC(=[N+](C)C)C=C2[Si](C)(C)c2cc(N(C)C)ccc21` [2 triazole], in data set [2], the Enhancement is 48x^a, the Φfl is reported as 0.20^a, the λem is listed as 668 nm^a and the λmax is recorded as 665 nm^a.

In data set [1], `COc1cc(N)cc(C2=C3C=CC(=[N+](C)C)C=C3[Si](C)(C)c3cc(N(C)C)ccc32)c1OC` [Compound 6-NH2] gave a λabs of 652 nm, a λem of 665 nm and a Φfl of 0.00067. Besides, the “Change in Φfl” value in data set [1] (setting [3]) is 58-fold ↓.

In data set [1], `COc1cc(N)c(OC)c(C2=C3C=CC(=[N+](C)C)C=C3[Si](C)(C)c3cc(N(C)C)ccc32)c1` [Compound 8-NH2] had a λabs of 654 nm, a λem of 672 nm and a Φfl of 0.0012. Further, the “Change in Φfl” value in data set [1] (setting [3]) was 41-fold ↓.

In data set [1], `CN(C)c1ccc2c(c1)[Si](C)(C)C1=CC(=[N+](C)C)C=CC1=C2c1cc(N=[N+]=[N-])ccc1N1CCOCC1` [Compound 3-N3] returned a λabs of 656 nm, a λem of 667 nm and a Φfl of 0.0014.

In data set [1], `COc1ccc(-n2cc(CCC(=O)NCCO)nn2)cc1C1=C2C=CC(=[N+](C)C)C=C2[Si](C)(C)c2cc(N(C)C)ccc21` [Compound 2-triazole] displayed a λabs of 655 nm, a λem of 669 nm and a Φfl of 0.19. The “Change in Φfl” value in data set [1] (setting [4]) is listed as 2.3-fold ↑.

In data set [1], `CN(C)c1ccc2c(c1)[Si](C)(C)C1=CC(=[N+](C)C)C=CC1=C2c1cc(-n2cc(CCC(=O)NCCO)nn2)cc2[nH]ccc12` [Compound 4-triazole] showed a λabs of 654 nm, a λem of 668 nm and a Φfl of 0.0088. Also, in data set [1] (setting [4]), the “Change in Φfl” value is on record as 1.8-fold ↑.

Regarding `CN(C)c1ccc2c(c1)[Si](C)(C)C1=CC(=[N+](C)C)C=CC1=C2c1cc(N=[N+]=[N-])cc2c1OCCO2` [Compound 5-N3], in data set [1], the λabs is 655 nm, the λem was found to be 668 nm and the Φfl was 0.019.

As for `CN(C)c1ccc2c(c1)[Si](C)(C)C1=CC(=[N+](C)C)C=CC1=C2c1ccc(-n2cc(CCC(=O)NCCO)nn2)c2ccccc12` [Compound 1-triazole], in data set [1], the λabs came out at 656 nm, the λem stood at 670 nm and the Φfl was found to be 0.19. Further, the “Change in Φfl” value in data set [1] (setting [4]) is on record as 5.0-fold ↑.

In data set [1], `COc1ccc(N=[N+]=[N-])cc1C1=C2C=CC(=[N+](C)C)C=C2[Si](C)(C)c2cc(N(C)C)ccc21` [Compound 2-N3] came in with a λabs of 653 nm, a λem of 667 nm and a Φfl of 0.081.

`COCCOCCOCCOc1cc(OCCOCCOCCOC)c(C2=C3C=CC(=[N+](C)C)C=C3[Si](C)(C)c3cc(N(C)C)ccc32)cc1N=[N+]=[N-]` [Compound 10]: the cell-surface labeling entry with CHO K1 cells (Ac4ManNAl-treated CHO K1, no wash, 15 min) is reported as “robust cell-surface labeling”. In addition, the background labeling result in the data set on CHO K1 cells (CHO K1, control or unwanted labeling) is given as “minimal”. Besides, the “background, intracellular or mitochondrial labeling” value in the data set on HEK 293T cells was “mitochondrial staining; also recorded: punctate fluorescence appeared within the cells almost immediately”.

Take `COc1cc(C2=C3C=CC(=[N+](C)C)C=C3[Si](C)(C)c3cc(N(C)C)ccc32)c(OC)c(-n2cc(CCC(=O)NCCO)nn2)c1` [Compound 8-triazole]: in data set [1], the λabs is reported as 657 nm, the λem came out at 671 nm and the Φfl is 0.16. Besides, in data set [1] (setting [4]), the “Change in Φfl” value is 3.2-fold ↑.
